Measurements published in the supplement of paper PMC5579334.

Key:
HS-PSS [1] = assay: relative IC50 (inflection point of fitted dose-response curve, CellTox-Green cytotoxicity, 72 h; top asymptote may be below 50%); higher = less potent
How it was run: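 For 72 h at 37 °C, MPNST cell lines and primary human Schwann cells were exposed in 384-well plates to five 10-fold compound dilutions. CellTox-Green, added before seeding at a final 1:1000 dilution, gave fluorescence from DNA released by disrupted cells. Signals were scaled to vehicle and positive-control wells, cultures failing plate quality control were left out, and four-parameter logistic fits were applied. Relative IC50 and drug sensitivity score were derived from the fits, with IC50 censored at the top concentration.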

YST-1 = assay: relative IC50 (inflection point of fitted dose-response curve, CellTiter-Glo viability, 72 h; top asymptote may be below 50% inhibition); higher = less potent
How it was run: (§1)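 MPNST cell lines and primary human Schwann cells were seeded at 750–1000 cells per well into 384-well plates preprinted with each compound at five concentrations in 10-fold steps, then incubated 72 h at 37 °C, 5% CO2. CellTiter-Glo ATP luminescence gave viability, scaled between vehicle and positive-control wells, with duplicates averaged where present. Curves were fitted with a four-parameter logistic model. Percent inhibition refers to the top concentration, while drug sensitivity score and relative IC50, censored at the top concentration, come from these fits.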

HS-PSS [2] = assay: as above
How it was run: as §1

HS-Sch-2 = assay: as above
How it was run: as §1

SMILES | relative IC50 (HS-PSS [1]) [µM] | relative IC50 (YST-1) [µM] | relative IC50 (HS-PSS [2]) [µM] | relative IC50 (HS-Sch-2) [µM]
CCS(=O)(=O)N1CCN(c2ccc(Nc3ncc(C(N)=O)c(NC4CC4)n3)cc2)CC1 [Cerdulatinib] | > 10 | > 10 | 1.27 | 1.88
CCCOc1ccn2c(C(C)=O)cc(-c3ccccc3S(C)(=O)=O)c2c1 [GSK2801] | > 10 | > 10 | > 10 | > 10
CC(C)(O)CC(=O)NCCn1ccc2ncnc(Nc3ccc(Oc4cccc(C(F)(F)F)c4)c(Cl)c3)c21 [TAK-285] | > 2.5 | > 2.5 | > 2.5 | > 2.5
N[C@@H]1CCCN(c2c(/C=C3\SC(=O)NC3=O)cccc2-c2ccccc2)C1 [AZD1208] | > 10 | 0.204 | > 10 | > 10
C[C@@H](Oc1ccc2[nH]nc(/C=C/c3cnn(CCO)c3)c2c1)c1c(Cl)cncc1Cl | 0.245 | 0.114 | 0.187 | 0.118
C[C@@H]1C[C@H]2O[C@@H]2/C=C\C=C\C(=O)Cc2c(Cl)c(O)cc(O)c2C(=O)O1 [Radicicol] | 1.14 | 0.81 | 0.545 | 0.353
FC(F)(F)c1ccc(/C=C/c2nc(COc3ccc(CCCCn4ccnn4)cc3)co2)cc1 [Mubritinib] | > 1 | 0.00605 | 0.0109 | 0.0197
CC(C)c1cc(C(=O)N2Cc3ccc(CN4CCN(C)CC4)cc3C2)c(O)cc1O [Onalespib] | 0.0627 | 0.105 | 0.114 | 0.037
C=CC(=O)Nc1cccc(Nc2nc(Nc3ccc(N4CCN(C(C)=O)CC4)cc3OC)ncc2C(F)(F)F)c1 [Rociletinib] | 2.98 | 1.61 | 3.1 | 2.82
CN(C)Cc1c(C(=O)NCCOc2ccc(C(=O)NO)cc2)oc2ccccc12 [Abexinostat] | 1.43 | 0.0723 | 0.333 | 0.197
CCNC(=O)Nc1ccc(-c2nc3c(c(N4CCOC[C@@H]4C)n2)CCN(C2COC2)C3)cc1 [RG-7603] | > 2.5 | 0.192 | 0.777 | 0.356
O=C1NC(=O)/C(=C/c2ccc3nccc(-c4ccncc4)c3c2)S1 | > 10 | 1.17 | 3.06 | 3.38
O=c1sn(-c2cccc3ccccc23)c(=O)n1Cc1ccccc1 [Tideglusib] | > 3 | > 3 | > 3 | > 3
COc1cc(Nc2ncc(F)c(Nc3ccc4c(n3)N(COP(=O)(O)O)C(=O)C(C)(C)O4)n2)cc(OC)c1OC [Fostamatinib] | > 2.5 | 0.685 | 0.514 | 0.416
NCC(=O)Nc1ccc(-n2nc(C(F)(F)F)cc2-c2ccc3c(ccc4ccccc43)c2)cc1 | 5.04 | 7.97 | 9.14 | 6
NC(=O)N1CCC(CC(=O)N2CCC([C@H]3c4ncc(Br)cc4CCc4cc(Cl)cc(Br)c43)CC2)CC1 [Lonafarnib] | > 10 | 1.37 | 2.15 | 1.66
O=C(O)CSc1cc(NS(=O)(=O)c2ccc(Br)cc2)c2ccccc2c1O [UMI-77] | 30.5 | 3.04 | 26.9 | 5.66
CC[C@H](C)C(=O)O[C@H]1C[C@@H](C)C=C2C=C[C@H](C)[C@H](CC[C@@H]3C[C@@H](O)CC(=O)O3)[C@H]21 [Lovastatin] | > 10 | > 10 | > 10 | > 10
CCc1c2c(nc3ccc(O)cc13)-c1cc3c(c(=O)n1C2)COC(=O)[C@]3(O)CC [SN-38] | 0.0297 | 0.00463 | 0.036 | 0.00922
CCN(CC)C(=S)SSC(=S)N(CC)CC [Disulfiram] | 6.65 | 0.303 | 0.291 | 0.6
Cc1cc(C(=O)NOCCO)c(Nc2ccc(I)cc2F)n(C)c1=O [AZD-8330] | > 10 | > 10 | 0.322 | 0.174

SMILES | relative IC50 (HS-PSS [1]) [µM] | relative IC50 (YST-1) [µM] | relative IC50 (HS-PSS [2]) [µM] | relative IC50 (HS-Sch-2) [µM]
CS(=O)(=O)N1CCc2c(-c3cnc(N)nc3)nc(N3CCOCC3)nc21 | > 10 | 0.256 | 0.687 | 1.05
O=C(O)c1ccc(CN2CCC(CN[C@@H]3C[C@H]3c3ccccc3)CC2)cc1 | > 10 | > 10 | > 10 | > 10
COc1ncc(-c2ccc3nccc(-c4ccnnc4)c3c2)cc1NS(=O)(=O)c1ccc(F)cc1F [Omipalisib] | > 1 | 0.00688 | 0.0352 | 0.0984
CCN(CC)CCCC(C)Nc1ccnc2cc(Cl)ccc12 (centres undefined) [Chloroquine] | 8.35 | 14.7 | 2.73 | 3.75
O=C(O)c1ccc2c(c1)nc(Nc1cccc(Cl)c1)c1ccncc12 [Silmitasertib] | > 10 | 2.36 | 2.58 | 3.54
CNC(=O)c1ccc(C)c(-n2c(C)cc(OCc3ccc(F)cc3F)c(Br)c2=O)c1 | > 1 | 0.0446 | > 1 | > 1
CC(C)[C@H]1C(=O)N[C@@H](CCCNC(=N)N)C(=O)NCC(=O)N[C@@H](CC(=O)O)C(=O)N[C@H](Cc2ccccc2)C(=O)N1C [Cilengitide] | > 10 | > 10 | > 10 | 3.25
O=c1cc(N2CCOCC2)oc2c(-c3ccccc3)cccc12 | 18.3 | 7.66 | 13.4 | 13.7
COC[C@H](NC(=O)c1cnc(C)s1)C(=O)N[C@@H](COC)C(=O)N[C@@H](Cc1ccccc1)C(=O)[C@@]1(C)CO1 [Oprozomib] | 0.486 | 0.0721 | 0.148 | 0.0167
COc1cc(N2CCC(N3CCN(C)CC3)CC2)ccc1Nc1ncnc(Nc2ccccc2S(=O)(=O)C(C)C)n1 [ASP3026] | > 10 | > 10 | > 10 | > 10
N.N.[Cl][Pt][Cl] [Cisplatin] | 2.27 | 5.18 | 4.7 | 1.17
CC(C)NC(=O)COc1cccc(-c2nc(Nc3ccc4[nH]ncc4c3)c3ccccc3n2)c1 [SLx-2119] | > 5 | 0.193 | 1.04 | 0.653
CCN(CC)Cc1ccc2cc(COC(=O)Nc3ccc(C(=O)NO)cc3)ccc2c1 [Givinostat] | 0.253 | 0.0637 | 0.351 | 0.166
Cc1nc(Nc2n[nH]c3c2CN(C(=O)N[C@H](CN(C)C)c2ccccc2)C3(C)C)c2sccc2n1 | 0.127 | 0.067 | 0.0225 | 0.413
C[C@@H](Oc1cc(-n2cnc3ccc(CN4CCN(C)CC4)cc32)sc1C(N)=O)c1ccccc1C(F)(F)F | 3.2 | 0.0209 | 0.501 | 0.0119
NC(=S)N/N=C/c1ncccc1N [Triapine] | 3.26 | 3.88 | 2.25 | 1.69
Cc1cc(OCc2nnc(SC3CCCC3)n2-c2cccnc2)ccc1-c1ccc(S(C)(=O)=O)cc1 [NMS-873] | 2.95 | 1.49 | 0.101 | 0.193
Cc1c(CN2CCN(C(=O)[C@H](C)O)CC2)sc2c(N3CCOCC3)nc(-c3cnc(N)nc3)nc12 [Apitolisib] | > 10 | 0.167 | 0.715 | 0.732
CCCC(CCC)C(=O)O [Valproic acid] | > 1000 | 306 | > 1000 | > 1000
Cc1cnc(Nc2ccc(OCCN3CCCC3)cc2)nc1Nc1cccc(S(=O)(=O)NC(C)(C)C)c1 [Fedratinib] | 3.37 | 1.52 | 1.44 | 1.18
CN1CCC(CNc2ccc3ncc(-c4cccc(OC(F)(F)F)c4)n3n2)CC1 [SGI-1776] | 2.51 | 1.66 | 2.47 | 2.37

SMILES | relative IC50 (HS-PSS [1]) [µM] | relative IC50 (YST-1) [µM] | relative IC50 (HS-PSS [2]) [µM] | relative IC50 (HS-Sch-2) [µM]
CN(C)Cc1ccc(S(=O)(=O)n2ccc(/C=C/C(=O)NO)c2)cc1 [Resminostat] | 3.06 | 0.578 | 2.18 | 2.17
C[C@@H]1CN(CC(=O)Nc2ccc3c(c2)Cc2cccc(-c4cc(=O)cc(N5CCOCC5)o4)c2S3)C[C@H](C)O1 | > 25 | 9.26 | 10.1 | 4.24
CN(C[C@@H]1COCCO1)S(=O)(=O)Nc1ccc2ccc3ncc(-c4cnn(C)c4)cc3c(=O)c2c1 [MK-2461] | > 10 | 1.68 | 4.1 | 3.48
C/C=C1\NC(=O)[C@H]2CSSCC/C=C/[C@H](CC(=O)N[C@H](C(C)C)C(=O)N2)OC(=O)[C@H](C(C)C)NC1=O [Romidepsin] | 0.337 | 0.00075 | 0.3 | 0.002
CCCCNc1ncc(C(=O)NCc2ccc(-n3ccnc3)cc2)c(NC2CCC(O)CC2)n1 (centres undefined) [UNC2881] | > 2.5 | 0.345 | 0.338 | > 2.5
CC(C)[C@H](C(=O)Nc1ccc(C(=O)NO)cc1)c1ccccc1 [AR-42] | 1.92 | 0.27 | 1.06 | 1.15
COc1c(OCCCN2CCOCC2)ccc2c1N=C(NC(=O)c1cnc(N)nc1)N1CCN=C21 [Copanlisib] | > 1 | 0.0221 | 0.405 | 0.113
CCS(=O)(=O)N1CC(CC#N)(n2cc(-c3ncnc4[nH]ccc34)cn2)C1 [Baricitinib] | > 2.5 | > 2.5 | > 2.5 | > 2.5
CN(C)C1CCN(C(=O)c2ccc(NC(=O)Nc3ccc(-c4nc(N5CCOCC5)nc(N5CCOCC5)n4)cc3)cc2)CC1 [Gedatolisib] | > 1 | 0.0164 | 0.00908 | 0.0472
COc1ccc(CCc2nc3cc(-c4c(C)noc4C)ccc3n2C[C@H](C)N2CCOCC2)cc1Cl [SGC-CBP30] | > 25 | 3.97 | 9.71 | 3.85
C[C@@H]1COC(Nc2ccc3ncnc(Nc4ccc(OCc5nccs5)c(Cl)c4)c3c2)=N1 [Varlitinib] | > 10 | 0.247 | 0.821 | 1.64
Cc1cc(C)c(CNC(=O)c2cc(-c3ccc(CN4CCOCC4)cc3)cc3c2cnn3C2CCCC2)c(=O)[nH]1 [EPZ-5687] | > 10 | > 10 | > 10 | > 10
O=C(Nc1nc2ccccc2n1CCN1CCOCC1)c1cccc([N+](=O)[O-])c1 [IRAK1/4 inhibitor] | > 25 | > 25 | > 25 | > 25
CCCCc1nc2cc(/C=C/C(=O)NO)ccc2n1CCN(CC)CC [Pracinostat] | 1.63 | 0.121 | 0.728 | 0.429
O=C(O)C(=O)O.[NH-][C@@H]1CCCC[C@H]1[NH-].[Pt+2] [Oxaliplatin] | 23.2 | 1.97 | 7.51 | 9.67
Cn1cc(-c2ccc3nnc(Sc4ccc5ncccc5c4)n3n2)cn1 [SGX-523] | > 5 | > 5 | > 5 | > 5
CCNC(=O)C[C@@H]1N=C(c2ccc(Cl)cc2)c2cc(OC)ccc2-n2c(C)nnc21 | > 10 | 0.501 | 0.709 | 0.624
Cn1nccc1Nc1nccc(-c2ccn([C@H](CO)c3ccc(Cl)c(F)c3)c(=O)c2)n1 [GDC-0994] | > 10 | 4.28 | > 10 | 2.76
Cn1cc(C[C@@H](N)C(=O)O)c2ccccc21 [1-methyl-D-tryptophan] | > 5 | > 5 | > 5 | > 5
